PMC10762078, “Role of UPF1-LIN28A interaction during early differentiation of pluripotent stem cells” (Nature Communications, 2024)

Tests used:
[1] = test system: nonsense-mediated mRNA decay (NMD); experiment: NMD reporter mRNA by RT-qPCR in HeLa cells without LIN28A, with CPP-peptides (Supplementary Fig. 5c); assay type: cell-based; conditions: no LIN28A, 2 μM, n = 5
Procedure: For CPP-conjugated peptide delivery, HeLa, 293T, and PA-1 cells were incubated with CPP-conjugated peptides or CPP-FITC at 2 μM in DMEM with 10% FBS for 12 h a day before cell harvest. hPSCs were treated with CPP-conjugated peptides at 10 μM in mTeSR Plus Medium, and the peptide-containing medium was changed every day over 10 days. The ROCK inhibitor (Tocris Bioscience, Y-27632) treated-hPSCs were dissociated into single cells using Accutase (Merck, SCR005) and differentiated into ectoderm, mesoderm, and endoderm using the STEMdiff Trilineage Differentiation Kit ([…] Technologies, 05230) following the manufacturer’s protocol. Differentiated cells treated with CPP-conjugated peptides were analysed at 0, 3, and 5 days for ectoderm and endoderm, and at 0, 3, and 4 days for mesoderm. […]
cDNA was synthesised using RevertAid Reverse Transcriptase (Thermo Fisher Scientific, EP0441) with synthesised random hexamer (Macrogen) for total RNA or stem-loop primers for miRNA. For RT-qPCR reactions, the SensiFAST SYBR No-ROX kit (Meridian Bioscience) was used according to the manufacturer’s protocol. All data analysis and visualisation were conducted using R 3.6.1 [www.r-project.org] or GraphPad Prism 10. RT primers for miRNA and RT-qPCR primer sequences are provided in Supplementary Data 6. […]

UPF1-LIN28A interaction = experiment: GST pull-down of MYC-UPF1 with GST-LIN28A in presence of CPP-conjugated peptide; assay type: cell-based; conditions: 293T cells, CPP-peptide 2 μM 12 h, n = 3
Procedure: For CPP-conjugated peptide delivery, HeLa, 293T, and PA-1 cells were incubated with CPP-conjugated peptides or CPP-FITC at 2 μM in DMEM with 10% FBS for 12 h a day before cell harvest. hPSCs were treated with CPP-conjugated peptides at 10 μM in mTeSR Plus Medium, and the peptide-containing medium was changed every day over 10 days. The ROCK inhibitor (Tocris Bioscience, Y-27632) treated-hPSCs were dissociated into single cells using Accutase (Merck, SCR005) and differentiated into ectoderm, mesoderm, and endoderm using the STEMdiff Trilineage Differentiation Kit ([…] Technologies, 05230) following the manufacturer’s protocol. Differentiated cells treated with CPP-conjugated peptides were analysed at 0, 3, and 5 days for ectoderm and endoderm, and at 0, 3, and 4 days for mesoderm.
Cells were lysed in ice-cold hypotonic buffer (10 mM Tris-Cl pH 7.5, 10 mM NaCl, 10 mM EDTA, 0.5% Triton X 100, Xpert Protease inhibitor cocktail solution, and Xpert Phosphatase inhibitor cocktail solution (GenDEPOT)). […]
Protein samples were loaded for electrophoresis on sodium dodecyl sulphate (SDS) polyacrylamide gels, followed by Coomassie blue staining or transferred to nitrocellulose membranes (Cytiva) for WB. […] The blots were imaged using ChemiDoc XRS+ System (Bio-Rad) and the greyscale intensity values were quantified using Image Lab 3.0 software (Bio-Rad).

KKKWCRKKKSSADEKRYRALKRTAERELLMNA [CPP-P8, CPP conjugated to P8]
effect on NMD in absence of LIN28A [1]: did not affect NMD in the absence of LIN28A | coimmunoprecipitated MYC-UPF1 with GST-LIN28A (UPF1-LIN28A interaction): reduced upon CPP-P8 treatment
